Experimental data taken from ChEMBL document CHEMBL1949649, “5-sulfonyl-benzimidazoles as selective CB2 agonists-part 2” (Bioorg Med Chem Lett, 2012).

biological target: Cannabinoid receptor 2 (Homo sapiens, UniProt P34972); assay: Agonist activity at human CB2 receptor; assay type: functional; settings: not given
Sequence (P34972 whole entry): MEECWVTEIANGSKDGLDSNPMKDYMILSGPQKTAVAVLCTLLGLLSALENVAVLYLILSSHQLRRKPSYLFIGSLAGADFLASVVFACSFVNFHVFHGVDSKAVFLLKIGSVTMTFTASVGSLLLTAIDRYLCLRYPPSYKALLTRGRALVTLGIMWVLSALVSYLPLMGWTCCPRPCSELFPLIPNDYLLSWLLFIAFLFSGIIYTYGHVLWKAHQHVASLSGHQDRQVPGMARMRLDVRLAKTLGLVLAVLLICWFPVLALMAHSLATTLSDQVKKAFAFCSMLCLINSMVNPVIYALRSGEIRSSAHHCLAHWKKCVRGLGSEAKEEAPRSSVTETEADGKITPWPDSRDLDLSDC

Row | Structure (SMILES) | EC50 [nM]
1 | COCCCNc1cc(S(=O)(=O)c2ccc3c(c2)nc(C(C)(C)C)n3CC2CCOCC2)ccn1 | 0.8
2 | CC(=O)NCCCCCc1cc(S(=O)(=O)c2ccc3c(c2)nc(C(C)(C)C)n3CC2CCOCC2)ccn1 | 5.6
3 | COCCCc1cc(S(=O)(=O)c2ccc3c(c2)nc(C(C)(C)C)n3CC2CCOCC2)ccn1 | 1.1
4 | CC(C)(C)c1nc2cc(S(=O)(=O)CCCC(F)(F)F)ccc2n1CC1CCOCC1 | 1.1

system: Rattus norvegicus; assay: Toxicity in rat assessed as decrease in body temperature at 10 mg/kg, ip by modified tetrad test; assay type: organism-based; set-up: dose 10 mg/kg, route intraperitoneal; settings: in vivo

Row | Structure (SMILES) | Activity
5 | CC(C)(C)c1nc2cc(S(=O)(=O)CCCC(F)(F)F)ccc2n1CC1CCOCC1 | Toxic

system: not listed separately; assay: Drug metabolism in human liver microsomes after 15 mins; assay type: ADME, Microsome; settings: read-out: Drug metabolism

Row | Structure (SMILES) | metabolised at 0.25 h [%]
6 | COCCCNc1cc(S(=O)(=O)c2ccc3c(c2)nc(C(C)(C)C)n3CC2CCOCC2)ccn1 | 99
7 | CC(=O)NCCCCCc1cc(S(=O)(=O)c2ccc3c(c2)nc(C(C)(C)C)n3CC2CCOCC2)ccn1 | 86
8 | COCCCc1cc(S(=O)(=O)c2ccc3c(c2)nc(C(C)(C)C)n3CC2CCOCC2)ccn1 | 93
9 | CC(C)(C)c1nc2cc(S(=O)(=O)CCCC(F)(F)F)ccc2n1CC1CCOCC1 | 36

biological target: Cannabinoid receptor 1 (Homo sapiens, UniProt P21554); assay: Agonist activity at human CB1 receptor; assay type: functional; settings: not given
Sequence (P21554 whole entry): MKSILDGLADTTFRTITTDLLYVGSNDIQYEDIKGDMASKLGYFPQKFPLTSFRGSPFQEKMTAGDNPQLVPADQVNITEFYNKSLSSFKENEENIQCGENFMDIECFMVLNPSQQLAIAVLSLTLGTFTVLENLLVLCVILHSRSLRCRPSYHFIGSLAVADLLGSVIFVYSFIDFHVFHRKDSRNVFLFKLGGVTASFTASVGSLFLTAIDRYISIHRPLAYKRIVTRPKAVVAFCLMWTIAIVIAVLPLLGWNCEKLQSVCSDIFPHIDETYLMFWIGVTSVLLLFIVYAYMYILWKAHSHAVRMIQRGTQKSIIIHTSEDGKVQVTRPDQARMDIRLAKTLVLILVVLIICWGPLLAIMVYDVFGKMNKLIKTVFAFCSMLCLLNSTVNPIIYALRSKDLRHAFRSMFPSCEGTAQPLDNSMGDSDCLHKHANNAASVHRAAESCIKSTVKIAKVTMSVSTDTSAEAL

Row | Structure (SMILES) | EC50 [nM]
10 | CC(=O)NCCCCCc1cc(S(=O)(=O)c2ccc3c(c2)nc(C(C)(C)C)n3CC2CCOCC2)ccn1 | > 10000
11 | COCCCc1cc(S(=O)(=O)c2ccc3c(c2)nc(C(C)(C)C)n3CC2CCOCC2)ccn1 | > 10000
12 | CC(C)(C)c1nc2cc(S(=O)(=O)CCCC(F)(F)F)ccc2n1CC1CCOCC1 | 320

system: Rattus norvegicus; assay: Toxicity in rat assessed as appearance of flat body posture at 2.5 mg/kg, ip by modified tetrad test; assay type: organism-based; set-up: dose 2.5 mg/kg, route intraperitoneal; settings: in vivo

Row | Structure (SMILES) | Activity
13 | CC(C)(C)c1nc2cc(S(=O)(=O)CCCC(F)(F)F)ccc2n1CC1CCOCC1 | Toxic
